{"source": "ChEMBL document CHEMBL3132769", "about": "“Fragment growing to retain or alter the selectivity of anchored kinase hinge-binding fragments” (Medchemcomm, 2014)", "key": {"[1]": {"molecular_target": "T1, Serine/threonine-protein kinase D2 (Homo sapiens) (UniProt Q9BZL6)", "T1 sequence (whole entry)": "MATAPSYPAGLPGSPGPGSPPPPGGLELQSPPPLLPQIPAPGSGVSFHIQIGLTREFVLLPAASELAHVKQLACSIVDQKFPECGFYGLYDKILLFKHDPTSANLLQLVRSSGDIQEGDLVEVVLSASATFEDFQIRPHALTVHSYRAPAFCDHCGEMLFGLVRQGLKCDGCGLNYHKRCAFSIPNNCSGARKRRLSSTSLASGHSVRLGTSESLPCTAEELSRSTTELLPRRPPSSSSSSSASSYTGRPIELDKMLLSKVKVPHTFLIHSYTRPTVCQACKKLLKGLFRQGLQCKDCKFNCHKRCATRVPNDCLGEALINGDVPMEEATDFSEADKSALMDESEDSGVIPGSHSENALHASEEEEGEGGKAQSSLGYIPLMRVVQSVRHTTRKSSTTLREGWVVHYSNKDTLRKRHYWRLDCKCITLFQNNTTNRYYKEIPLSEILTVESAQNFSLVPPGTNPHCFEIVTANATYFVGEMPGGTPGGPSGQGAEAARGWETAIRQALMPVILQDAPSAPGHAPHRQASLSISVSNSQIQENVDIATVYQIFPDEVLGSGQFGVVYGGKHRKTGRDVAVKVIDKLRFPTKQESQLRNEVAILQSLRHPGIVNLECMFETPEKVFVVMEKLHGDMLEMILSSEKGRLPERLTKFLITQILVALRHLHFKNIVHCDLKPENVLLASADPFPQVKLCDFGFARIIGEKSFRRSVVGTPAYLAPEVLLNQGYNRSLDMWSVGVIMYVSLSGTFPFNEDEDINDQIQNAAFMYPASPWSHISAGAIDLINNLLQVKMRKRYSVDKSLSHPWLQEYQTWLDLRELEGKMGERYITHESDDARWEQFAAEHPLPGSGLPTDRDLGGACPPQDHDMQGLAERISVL", "test": "Inhibition of human full length PKD2 expressed in baculovirus assessed as substrate phosphorylation using fluorescence-labelled peptides as substrate at 95 uM after 90 mins by microfluidic peptide phosphorylation assay"}, "[2]": {"molecular_target": "Protein kinase C gamma type (Homo sapiens) (UniProt P05129)", "test": "Inhibition of human truncated PKC gamma expressed in baculovirus assessed as substrate phosphorylation using fluorescence-labelled peptides as substrate at 95 uM after 90 mins by microfluidic peptide phosphorylation assay"}, "[3]": {"molecular_target": "Tyrosine-protein kinase ABL1 (Homo sapiens) (UniProt P00519)", "sequence (P00519 whole entry)": "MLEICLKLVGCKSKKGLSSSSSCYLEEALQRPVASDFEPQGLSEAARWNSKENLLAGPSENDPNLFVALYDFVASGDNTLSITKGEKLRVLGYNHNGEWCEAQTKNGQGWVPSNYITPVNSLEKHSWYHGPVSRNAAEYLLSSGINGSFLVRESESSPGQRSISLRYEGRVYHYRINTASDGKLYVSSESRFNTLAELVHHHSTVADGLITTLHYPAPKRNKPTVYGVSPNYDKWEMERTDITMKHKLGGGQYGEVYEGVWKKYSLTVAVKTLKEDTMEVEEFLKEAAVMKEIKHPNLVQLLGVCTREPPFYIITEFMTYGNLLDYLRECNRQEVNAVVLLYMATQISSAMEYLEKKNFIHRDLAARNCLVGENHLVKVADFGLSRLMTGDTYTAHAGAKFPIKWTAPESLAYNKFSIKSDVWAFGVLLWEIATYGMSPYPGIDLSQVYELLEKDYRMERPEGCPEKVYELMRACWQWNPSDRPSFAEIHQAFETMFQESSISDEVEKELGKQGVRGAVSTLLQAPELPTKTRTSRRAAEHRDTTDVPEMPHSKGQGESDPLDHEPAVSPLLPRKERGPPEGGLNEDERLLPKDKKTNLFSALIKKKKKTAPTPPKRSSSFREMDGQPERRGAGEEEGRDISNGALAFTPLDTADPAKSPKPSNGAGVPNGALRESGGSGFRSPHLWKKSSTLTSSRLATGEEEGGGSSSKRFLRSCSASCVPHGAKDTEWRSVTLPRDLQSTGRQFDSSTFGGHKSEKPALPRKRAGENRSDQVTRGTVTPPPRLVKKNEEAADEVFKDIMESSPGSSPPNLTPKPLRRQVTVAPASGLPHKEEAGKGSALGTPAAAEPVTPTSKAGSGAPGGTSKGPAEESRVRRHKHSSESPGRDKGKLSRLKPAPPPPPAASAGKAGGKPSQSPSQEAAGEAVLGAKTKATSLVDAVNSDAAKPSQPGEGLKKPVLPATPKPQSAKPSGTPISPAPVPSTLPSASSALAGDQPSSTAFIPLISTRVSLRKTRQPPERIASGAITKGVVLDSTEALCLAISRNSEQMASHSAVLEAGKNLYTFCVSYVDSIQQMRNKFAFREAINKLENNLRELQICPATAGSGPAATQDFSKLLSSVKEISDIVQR", "test": "Inhibition of human full-length ABL expressed in baculovirus assessed as substrate phosphorylation using fluorescence-labelled peptides as substrate at 0.2 uM after 90 mins by microfluidic peptide phosphorylation assay"}, "[4]": {"molecular_target": "T1, Serine/threonine-protein kinase D2 (Homo sapiens)", "test": "Inhibition of human full length PKD2 expressed in baculovirus assessed as substrate phosphorylation using fluorescence-labelled peptides as substrate at 1000 uM after 90 mins by microfluidic peptide phosphorylation assay"}, "[5]": {"molecular_target": "Casein kinase I isoform alpha (Homo sapiens) (UniProt P48729)", "sequence (P48729 2-337 limits assumed)": "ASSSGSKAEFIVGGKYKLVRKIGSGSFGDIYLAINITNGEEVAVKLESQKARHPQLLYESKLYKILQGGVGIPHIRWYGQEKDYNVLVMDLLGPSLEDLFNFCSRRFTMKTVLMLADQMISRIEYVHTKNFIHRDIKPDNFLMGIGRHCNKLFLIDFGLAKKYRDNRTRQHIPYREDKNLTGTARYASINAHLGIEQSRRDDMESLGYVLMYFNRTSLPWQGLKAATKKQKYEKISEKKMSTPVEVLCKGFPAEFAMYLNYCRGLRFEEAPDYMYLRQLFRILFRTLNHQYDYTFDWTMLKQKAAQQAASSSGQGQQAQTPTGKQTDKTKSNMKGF", "test": "Inhibition of human full length CSNK1A1 expressed in baculovirus assessed as substrate phosphorylation using fluorescence-labelled peptides as substrate at 1000 uM after 90 mins by microfluidic peptide phosphorylation assay"}, "[6]": {"molecular_target": "Calcium/calmodulin-dependent protein kinase type II subunit gamma (Homo sapiens) (UniProt Q13555)", "sequence (Q13555 whole entry, the tested form may be a part)": "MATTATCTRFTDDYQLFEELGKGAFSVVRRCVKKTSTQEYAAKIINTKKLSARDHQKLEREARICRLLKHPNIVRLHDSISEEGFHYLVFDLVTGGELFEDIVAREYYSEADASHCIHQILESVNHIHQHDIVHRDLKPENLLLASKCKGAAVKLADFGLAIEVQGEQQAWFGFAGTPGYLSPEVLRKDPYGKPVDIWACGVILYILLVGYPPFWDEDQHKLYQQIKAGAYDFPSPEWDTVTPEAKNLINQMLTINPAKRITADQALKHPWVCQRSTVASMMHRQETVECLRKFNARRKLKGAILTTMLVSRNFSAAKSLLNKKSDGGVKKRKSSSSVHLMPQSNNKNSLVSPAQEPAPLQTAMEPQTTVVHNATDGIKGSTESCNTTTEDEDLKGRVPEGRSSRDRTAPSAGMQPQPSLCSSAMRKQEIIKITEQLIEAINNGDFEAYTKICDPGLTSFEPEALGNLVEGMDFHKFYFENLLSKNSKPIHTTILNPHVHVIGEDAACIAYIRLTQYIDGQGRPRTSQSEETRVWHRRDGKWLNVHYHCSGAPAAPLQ", "test": "Inhibition of human CAMK2 gamma catalytic domain expressed in baculovirus assessed as substrate phosphorylation using fluorescence-labelled peptides as substrate at 0.06 uM after 90 mins by microfluidic peptide phosphorylation assay"}, "[7]": {"molecular_target": "MAP/microtubule affinity-regulating kinase 3 (Homo sapiens) (UniProt P27448)", "sequence (P27448 whole entry, looked up)": "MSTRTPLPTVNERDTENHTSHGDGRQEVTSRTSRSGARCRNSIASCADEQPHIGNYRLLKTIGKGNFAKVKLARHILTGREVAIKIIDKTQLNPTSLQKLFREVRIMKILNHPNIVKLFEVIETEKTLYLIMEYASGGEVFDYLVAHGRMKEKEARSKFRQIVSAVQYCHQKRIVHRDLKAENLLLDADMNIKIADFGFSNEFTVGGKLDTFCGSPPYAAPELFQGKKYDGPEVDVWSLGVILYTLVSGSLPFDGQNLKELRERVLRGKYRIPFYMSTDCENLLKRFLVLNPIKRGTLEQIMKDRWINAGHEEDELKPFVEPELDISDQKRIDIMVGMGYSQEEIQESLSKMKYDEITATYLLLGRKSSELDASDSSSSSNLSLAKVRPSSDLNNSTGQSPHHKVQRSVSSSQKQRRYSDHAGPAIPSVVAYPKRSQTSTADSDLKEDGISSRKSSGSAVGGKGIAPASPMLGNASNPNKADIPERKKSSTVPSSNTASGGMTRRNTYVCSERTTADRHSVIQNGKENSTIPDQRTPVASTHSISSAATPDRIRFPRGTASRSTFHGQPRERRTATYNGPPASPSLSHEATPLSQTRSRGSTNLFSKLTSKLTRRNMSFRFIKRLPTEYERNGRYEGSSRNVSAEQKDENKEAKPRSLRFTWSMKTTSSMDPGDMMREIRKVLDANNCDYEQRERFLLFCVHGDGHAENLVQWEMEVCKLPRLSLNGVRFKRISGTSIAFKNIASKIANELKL", "test": "Inhibition of human full length c-TAK1 expressed in Escherichia coli cell assessed as substrate phosphorylation using fluorescence-labelled peptides as substrate at 0.1 uM after 90 mins by microfluidic peptide phosphorylation assay"}, "[8]": {"test_system": "Fibroblast growth factor receptor 2 (Homo sapiens), P21802 [N549H]", "sequence (P21802 whole entry N549H, the tested form may be a part)": "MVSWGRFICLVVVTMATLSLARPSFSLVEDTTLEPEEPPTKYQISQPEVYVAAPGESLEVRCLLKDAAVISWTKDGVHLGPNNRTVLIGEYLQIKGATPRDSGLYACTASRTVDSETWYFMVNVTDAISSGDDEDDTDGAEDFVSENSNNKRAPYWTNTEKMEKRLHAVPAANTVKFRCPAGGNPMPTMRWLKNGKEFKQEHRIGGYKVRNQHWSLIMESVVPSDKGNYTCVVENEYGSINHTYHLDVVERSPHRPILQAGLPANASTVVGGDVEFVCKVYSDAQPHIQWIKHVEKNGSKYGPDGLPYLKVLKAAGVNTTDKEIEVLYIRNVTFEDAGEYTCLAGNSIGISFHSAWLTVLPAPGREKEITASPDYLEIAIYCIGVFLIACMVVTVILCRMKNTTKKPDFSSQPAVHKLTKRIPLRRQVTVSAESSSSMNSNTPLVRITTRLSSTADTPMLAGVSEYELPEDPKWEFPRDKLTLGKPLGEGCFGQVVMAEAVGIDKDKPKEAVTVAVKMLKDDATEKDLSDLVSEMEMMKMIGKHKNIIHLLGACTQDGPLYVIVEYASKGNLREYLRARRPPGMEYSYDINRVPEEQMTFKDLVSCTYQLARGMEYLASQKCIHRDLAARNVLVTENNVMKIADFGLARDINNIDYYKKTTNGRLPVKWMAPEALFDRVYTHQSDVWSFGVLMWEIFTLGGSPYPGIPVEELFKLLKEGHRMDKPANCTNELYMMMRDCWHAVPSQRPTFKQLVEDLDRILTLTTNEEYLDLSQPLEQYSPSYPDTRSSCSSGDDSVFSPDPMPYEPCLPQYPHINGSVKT", "test": "Inhibition of human FGFR2 N549H mutant catalytic domain expressed in baculovirus assessed as substrate phosphorylation using fluorescence-labelled peptides as substrate at 0.1 uM after 90 mins by microfluidic peptide phosphorylation assay"}, "[9]": {"molecular_target": "Protein kinase C delta type (Homo sapiens) (UniProt Q05655)", "sequence (Q05655 whole entry, looked up)": "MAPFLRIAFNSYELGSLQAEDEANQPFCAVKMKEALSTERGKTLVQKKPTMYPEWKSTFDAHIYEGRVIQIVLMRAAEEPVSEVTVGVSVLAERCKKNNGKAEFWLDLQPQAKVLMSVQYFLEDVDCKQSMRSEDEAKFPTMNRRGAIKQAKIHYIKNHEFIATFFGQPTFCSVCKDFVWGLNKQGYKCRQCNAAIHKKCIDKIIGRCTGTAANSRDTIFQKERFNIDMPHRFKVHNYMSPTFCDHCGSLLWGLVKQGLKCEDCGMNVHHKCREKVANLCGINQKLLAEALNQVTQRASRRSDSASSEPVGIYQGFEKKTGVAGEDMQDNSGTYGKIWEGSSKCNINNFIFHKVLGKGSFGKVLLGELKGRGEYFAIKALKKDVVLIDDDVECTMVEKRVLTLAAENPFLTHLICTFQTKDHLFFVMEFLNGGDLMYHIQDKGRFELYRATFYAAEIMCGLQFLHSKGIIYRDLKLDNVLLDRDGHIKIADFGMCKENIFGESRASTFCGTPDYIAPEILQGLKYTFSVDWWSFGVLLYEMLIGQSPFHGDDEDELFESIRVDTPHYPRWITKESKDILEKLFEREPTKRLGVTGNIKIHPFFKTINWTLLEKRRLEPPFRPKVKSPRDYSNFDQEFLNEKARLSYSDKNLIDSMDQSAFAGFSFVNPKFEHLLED", "conditions": "0.1 uM", "description": "Inhibition of human truncated PKC delta expressed in baculovirus assessed as substrate phosphorylation using fluorescence-labelled peptides as substrate at 0.1 uM after 90 mins by microfluidic peptide phosphorylation assay"}, "[10]": {"test_system": "Fibroblast growth factor receptor 2 (Homo sapiens), P21802 [N549H]", "test": "Inhibition of human FGFR2 N549H mutant catalytic domain expressed in baculovirus assessed as substrate phosphorylation using fluorescence-labelled peptides as substrate at […] after 90 mins by microfluidic peptide phosphorylation assay"}, "[11]": {"molecular_target": "Fibroblast growth factor receptor 4 (Homo sapiens) (UniProt P22455)", "sequence (P22455 22-802 limits assumed)": "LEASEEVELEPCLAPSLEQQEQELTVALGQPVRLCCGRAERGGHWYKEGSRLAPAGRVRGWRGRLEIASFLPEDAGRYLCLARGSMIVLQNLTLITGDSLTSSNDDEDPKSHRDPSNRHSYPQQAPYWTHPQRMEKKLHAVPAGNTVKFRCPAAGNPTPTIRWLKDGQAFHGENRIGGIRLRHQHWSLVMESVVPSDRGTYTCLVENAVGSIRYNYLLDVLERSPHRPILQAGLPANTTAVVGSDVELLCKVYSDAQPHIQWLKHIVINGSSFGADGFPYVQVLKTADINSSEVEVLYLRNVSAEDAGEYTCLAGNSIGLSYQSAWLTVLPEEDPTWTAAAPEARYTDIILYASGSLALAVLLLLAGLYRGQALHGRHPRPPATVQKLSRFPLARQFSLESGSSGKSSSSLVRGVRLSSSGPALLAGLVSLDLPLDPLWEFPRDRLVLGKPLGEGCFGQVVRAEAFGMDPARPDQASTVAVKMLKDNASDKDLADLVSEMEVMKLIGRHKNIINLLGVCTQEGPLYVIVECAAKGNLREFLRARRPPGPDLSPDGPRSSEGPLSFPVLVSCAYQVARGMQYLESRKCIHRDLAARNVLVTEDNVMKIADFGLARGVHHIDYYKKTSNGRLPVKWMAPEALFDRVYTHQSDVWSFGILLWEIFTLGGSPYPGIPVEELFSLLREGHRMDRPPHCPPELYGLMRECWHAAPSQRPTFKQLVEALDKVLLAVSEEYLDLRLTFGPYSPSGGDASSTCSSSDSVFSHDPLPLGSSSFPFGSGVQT", "test": "Inhibition of human FGFR4 catalytic domain expressed in baculovirus assessed as substrate phosphorylation using fluorescence-labelled peptides as substrate at 420 uM after 90 mins by microfluidic peptide phosphorylation assay"}, "[12]": {"molecular_target": "T2, Serine/threonine-protein kinase BRSK1 (Homo sapiens) (UniProt Q8TDC3)", "T2 sequence (whole entry)": "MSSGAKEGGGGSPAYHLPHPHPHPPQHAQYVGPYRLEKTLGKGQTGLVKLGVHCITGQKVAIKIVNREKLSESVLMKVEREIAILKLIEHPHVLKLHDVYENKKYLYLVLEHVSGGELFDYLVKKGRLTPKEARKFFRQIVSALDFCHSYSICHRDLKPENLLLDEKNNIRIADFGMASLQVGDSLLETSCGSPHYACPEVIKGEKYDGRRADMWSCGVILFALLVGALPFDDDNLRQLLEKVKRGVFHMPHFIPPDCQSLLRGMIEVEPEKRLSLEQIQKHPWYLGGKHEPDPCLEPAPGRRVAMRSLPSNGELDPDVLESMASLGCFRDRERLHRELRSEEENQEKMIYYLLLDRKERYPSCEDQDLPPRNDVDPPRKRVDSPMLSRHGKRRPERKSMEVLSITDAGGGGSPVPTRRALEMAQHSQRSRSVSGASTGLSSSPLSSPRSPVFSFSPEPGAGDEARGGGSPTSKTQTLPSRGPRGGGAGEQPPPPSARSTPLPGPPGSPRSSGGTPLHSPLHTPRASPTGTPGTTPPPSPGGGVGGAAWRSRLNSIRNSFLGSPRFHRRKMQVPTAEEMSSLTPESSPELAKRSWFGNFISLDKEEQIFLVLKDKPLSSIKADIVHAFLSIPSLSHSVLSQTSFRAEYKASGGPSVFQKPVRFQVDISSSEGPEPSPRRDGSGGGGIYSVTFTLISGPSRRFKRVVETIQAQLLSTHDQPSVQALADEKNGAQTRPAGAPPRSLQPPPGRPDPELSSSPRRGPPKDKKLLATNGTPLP", "test": "Inhibition of human full length BRSK1 expressed in baculovirus assessed as substrate phosphorylation using fluorescence-labelled peptides as substrate at 70 uM after 90 mins by microfluidic peptide phosphorylation assay"}, "[13]": {"molecular_target": "Serine/threonine-protein kinase Chk2 (Homo sapiens) (UniProt O96017)", "test": "Inhibition of human full length CHK2 expressed in baculovirus assessed as substrate phosphorylation using fluorescence-labelled peptides as substrate at 70 uM after 90 mins by microfluidic peptide phosphorylation assay"}}, "data": [{"molecule": "NCCc1ccc(-c2ncnc3[nH]cnc23)cc1", "values": [{"measurement": "inhibition", "setting": "[1]", "value": 77.5, "unit": "%"}, {"measurement": "inhibition", "setting": "[2]", "value": 71, "unit": "%"}]}, {"molecule": "Clc1ccc(C2(c3ccc(-c4ncnc5[nH]cnc45)cc3)CCNCC2)cc1", "values": [{"measurement": "inhibition", "setting": "[3]", "value": 0, "unit": "%"}]}, {"molecule": "c1cnc2[nH]ccc2c1", "values": [{"measurement": "inhibition", "setting": "[4]", "value": 49.5, "unit": "%"}, {"measurement": "inhibition", "setting": "[5]", "value": 73.5, "unit": "%"}]}, {"molecule": "NC1(Cc2ccc(Cl)cc2)CCN(c2ncnc3[nH]ccc23)CC1", "values": [{"measurement": "inhibition", "setting": "[6]", "value": 0, "unit": "%"}]}, {"molecule": "C[C@H](CN(C)C)Oc1nc(Nc2cc3cccc(Cl)c3cn2)cnc1C#N", "values": [{"measurement": "inhibition", "setting": "[7]", "value": 6, "unit": "%"}, {"measurement": "inhibition", "setting": "[8]", "value": 7.5, "unit": "%"}, {"measurement": "inhibition", "setting": "[9]", "value": 0, "unit": "%"}]}, {"molecule": "COC(=O)c1cnc(Nc2cnc(C#N)cn2)cc1NCC1CCNCC1", "values": [{"measurement": "inhibition", "setting": "[10]", "value": 6.5, "unit": "%"}]}, {"molecule": "c1nc(N2CCOCC2)c2nc[nH]c2n1", "values": [{"measurement": "inhibition", "setting": "[11]", "value": 75.5, "unit": "%"}]}, {"molecule": "CNCc1ccc(-c2ncnc3[nH]cnc23)cc1", "values": [{"measurement": "inhibition", "setting": "[12]", "value": 29.5, "unit": "%"}, {"measurement": "inhibition", "setting": "[13]", "value": 57.5, "unit": "%"}]}]}
